Experimental data as given in US20260258370A1, “METHOD FOR OBTAINING A NEUROMUSCULAR ORGANOID AND USE THEREOF” (Universiteit Antwerpen, priority 2021, published 2026).

Experiments:
Assay type in all cases: cell-based, human
CMT1A organoids [1] = assay: g-ratio of myelinated axons by transmission electron microscopy in CMT1A organoids; conditions: Day 25, TEM
[2] = system: PI3K-Akt signaling pathway; assay: p-Akt/Akt protein level ratio normalized to β-actin in treated CMT1A iPSC-derived organoids; conditions: Day 25, normalized to β-actin
CMT1A organoids [3] = assay: Myelin periodic line distance (myelin compaction) by transmission electron microscopy in CMT1A organoids

## shRNA-2: Short-hairpin RNA against human PMP22, region CDS (SEQ ID NO 10), Sigma Mission pLKO.1-library, lentivirally transduced (guide CCGGCCTGTTCTTCTGCCAACTCTTCTCGAGAAGAGTTGGCAGAAGAACAGGTTTTTG)
CMT1A organoids [1]
  g-ratio of axons: significantly increased the g-ratio
[2]
  p-Akt/Akt ratio: reduced p-Akt/Akt ratio could be reversed
CMT1A organoids [3]; high concentration (75 μL) of shRNA lentivirus
  myelin periodic line distance (myelin compaction): restored the myelin periodic line distance back to control levels
CMT1A organoids [3]; low concentration (25 μL) of shRNA lentivirus
  myelin periodic line distance (myelin compaction): partially improved myelin compaction
